The target in one assay is Aβ1-42 (Homo sapiens, UniProt P05067). The assay is described as follows: Aβ1-42 self-assembly assay not relying on ThT fluorescence. The class given is biochemical. The note with it: labeled Aβ1-42 onto immobilized un-labeled Aβ1-42.
For assay [1], the system named is mixed cortical cells from P1 rats. Description: Immunofluorescence of Aβ1-42 oligomer binding to neurons. The class given is cell-based, rat. Particulars: co-treatment, 30 min to 18 h. The procedure:
(§1) FIG. 3 provides graphs and immunocytochemical images corresponding to the experiments described in Example 6.4. Aβ1-42 oligomer binding to neurites was reduced by the anti-Aβ IgG4 monoclonal antibody. […] Green indicates staining with TuJ1, red indicates labeling with anti-Aβ (clone 6E10), and blue indicates staining with DAPI. […] Quantitative measures of fluorescence are shown for 30 min treatment and 18 h treatment (B). Mean results (±SEM) of two experiments are shown. […] Cortical cultures from P1 rats were treated as described for (A), except that Aβ1-42 tagged with HyLite Fluor-488 was used (C). Aβ1-42-labeled samples are shown in the upper panel and DAPI-stained samples are shown in the lower panel. One representative experiment is shown. Aβ1-42 fluorescence was quantified, with the mean (±SD) of the two independent experiments shown (D). […]
Aβ peptides, especially aggregation intermediates (Bateman et al., 2007), are known to associate with various lipids and proteins present in cell membranes. […] This effect was readily apparent as early as 30 min (FIGS. 3A and 3B) and remained for at least 18 h of treatment (FIG. 3B).
Cells were grown on a glass coverslips. […] Fluorescence intensity was measured in cell bodies delineated by saturated epifluorescence pictures. […]

Assay [2] deals with primary cortical cultures. Description: Intracellular Aβ1-42 accumulation ELISA on trypsin-cleared cells. Format: cell-based, rat. The procedure: as §1, with “One representative experiment is shown.” left out
The intracellular accumulation of Aβ1-42 was determined in trypsin-cleared cells using an ELISA assay.
To measure intracellular Aβ1-42 accumulation by ELISA, primary cortical cultures were treated in 6-well cell-culture plates (Costar) after which they were washed and trypsin-cleared (Bateman et al., 2007) before lysis in cell-lysis buffer consisting of 50 mM Tris-HCl (pH 8.0), 150 mM NaCl, 5 mM EDTA, 1 mM sodium orthovanadate, 1% Triton X-100, and containing protease- and phosphatase-inhibitor cocktails. Protein concentration was determined by the BCA assay (Pierce). […]

Another assay concerns APP/PS1 mice. The assay is described as follows: In vivo two-photon imaging of amyloid plaques. The note with it: systemic dosing; tracked over multiple weeks. On the set-up: species or system mouse. On the procedure:
FIG. 11 provides In vivo imaging of Aβ plaques in APP/PS1 mice treated with anti-beta amyloid antibody was performed. Systemic dosing of MABT modulates individual amyloid plaques in vivo. Amyloid plaques in APP/PS1 animals were labeled with Methoxy-X04 injected I.P., visualized by in vivo two-photon microscopy and tracked over multiple weeks (A). The relative change in plaque volume over time plotted as fold-increase from the initial imaging session (B).
Cranial windows were implanted above the somatosensory cortex of 10-month old APP hAPP(V717I)/PS1 mice, as previously described (Trachtenberg et al 2002, Holtmaat et al 2009), 2 weeks before the initial imaging session. Twenty-four hours prior to each imaging session animals were injected with 10 mg/kg Methoxy-X04 I.P. to visualize individual amyloid plaques (Klunk et al 2002) and immediately prior to imaging injected I.V. with AngioSense680 (VisEn Medical) to visualize blood vessels. For each imaging session animals were anesthetized with an isoflurane-oxygen mixture and mounted to the microscope using a head post. Images were collected via a two-photon laser scanning microscope (Ultima in vivo; Prairie Technologies) using a Ti:sapphire laser (MaiTai DeepSee; Spectra Physics) tuned to 820 nm delivering ˜30 mW to the back-focal plane of a 40× NA 0.8 objective lens (Olympus). […]

Sequence of Aβ1-42 (P05067 672-713 limits assumed): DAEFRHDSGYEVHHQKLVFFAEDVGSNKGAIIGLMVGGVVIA

As to “MABT: humanized anti-Aβ monoclonal antibody of IgG4 isotype, affinity matured and humanized form of mouse mMABT”, the Aβ1-42 self-assembly result with Aβ1-42 was “prevented the self-assembly of Aβ1-42 in a dose-dependent manner”. For the same substance, the “interaction of Aβ1-42 oligomers with neurons” value in assay [1] is “blocked the interaction of Aβ1-42 oligomers with neurons”. Further, the “reduction of Aβ1-42 oligomer internalization (intracellular accumulation)” value in assay [2] is listed as “more than 60%”. In addition, the individual plaque volume result in the assay with APP/PS1 mice is “decreased in volume”.

(Values after US9221900B2, “Methods for identifying safe and functional humanized antibodies” (AC IMMUNE S.A., priority 2010, dated 2015).)
